# Reference: patent US20180099931A1 (AbbVie S.à.r.l., priority 2016, published 2018)
# pEC50: −log10 of the molar value. Like-named read-outs stand apart in the source and are kept apart here.
# Biological target: T1, F508delCFTR (Homo sapiens, UniProt P13569, DEL508-508)
# T1 construct: expressed in transfected cells; host or cells: CFBE41o- human lung-derived epithelial cells (CFBE4lo-F508delCFTR-HRP), doxycycline-inducible
# Test: Cell Surface Expression-Horse Radish Peroxidase (CSE-HRP) Assay;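 as to Maximum % activity (with co-corrector): co-corrector and positive control are both the same reference corrector at 2 µM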;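 as to Maximum % activity (without co-corrector): percent of the 2 µM on-plate positive control corrector response above DMSO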
# Assay type: cell-based
# Settings: for Maximum % activity (with co-corrector) / Emax: maximum at any tested concentration, normalized to on-plate positive control; for Emax: read-out: Maximum % activity (without co-corrector)
# [1] = CSE-HRP, test compound without co-corrector, read-out: EC50 (without co-corrector)
# [2] = CSE-HRP, with co-corrector (2 μM of 3-[(2R,4R)-4-({[1-(2,2-difluoro-1,3-benzodioxol-5-yl)cyclopropyl]carbonyl}amino)-7-methoxy-3,4-dihydro-2H-chromen-2-yl]benzoic acid), read-out: EC50 (with co-corrector)
# [3] = CSE-HRP, with co-corrector (2 μM)
# [4] = test compound without co-corrector
# [5] = test compound without co-corrector, read-out: EC50 (without co-corrector)
# [6] = with co-corrector (2 μM of 3-[(2R,4R)-4-({[1-(2,2-difluoro-1,3-benzodioxol-5-yl)cyclopropyl]carbonyl}amino)-7-methoxy-3,4-dihydro-2H-chromen-2-yl]benzoic acid)
# [7] = with co-corrector (2 μM of 3-[(2R,4R)-4-({[1-(2,2-difluoro-1,3-benzodioxol-5-yl)cyclopropyl]carbonyl}amino)-7-methoxy-3,4-dihydro-2H-chromen-2-yl]benzoic acid), read-out: EC50 (with co-corrector)
# T1 sequence (P13569 with tags, fused parts or gaps DEL508-508): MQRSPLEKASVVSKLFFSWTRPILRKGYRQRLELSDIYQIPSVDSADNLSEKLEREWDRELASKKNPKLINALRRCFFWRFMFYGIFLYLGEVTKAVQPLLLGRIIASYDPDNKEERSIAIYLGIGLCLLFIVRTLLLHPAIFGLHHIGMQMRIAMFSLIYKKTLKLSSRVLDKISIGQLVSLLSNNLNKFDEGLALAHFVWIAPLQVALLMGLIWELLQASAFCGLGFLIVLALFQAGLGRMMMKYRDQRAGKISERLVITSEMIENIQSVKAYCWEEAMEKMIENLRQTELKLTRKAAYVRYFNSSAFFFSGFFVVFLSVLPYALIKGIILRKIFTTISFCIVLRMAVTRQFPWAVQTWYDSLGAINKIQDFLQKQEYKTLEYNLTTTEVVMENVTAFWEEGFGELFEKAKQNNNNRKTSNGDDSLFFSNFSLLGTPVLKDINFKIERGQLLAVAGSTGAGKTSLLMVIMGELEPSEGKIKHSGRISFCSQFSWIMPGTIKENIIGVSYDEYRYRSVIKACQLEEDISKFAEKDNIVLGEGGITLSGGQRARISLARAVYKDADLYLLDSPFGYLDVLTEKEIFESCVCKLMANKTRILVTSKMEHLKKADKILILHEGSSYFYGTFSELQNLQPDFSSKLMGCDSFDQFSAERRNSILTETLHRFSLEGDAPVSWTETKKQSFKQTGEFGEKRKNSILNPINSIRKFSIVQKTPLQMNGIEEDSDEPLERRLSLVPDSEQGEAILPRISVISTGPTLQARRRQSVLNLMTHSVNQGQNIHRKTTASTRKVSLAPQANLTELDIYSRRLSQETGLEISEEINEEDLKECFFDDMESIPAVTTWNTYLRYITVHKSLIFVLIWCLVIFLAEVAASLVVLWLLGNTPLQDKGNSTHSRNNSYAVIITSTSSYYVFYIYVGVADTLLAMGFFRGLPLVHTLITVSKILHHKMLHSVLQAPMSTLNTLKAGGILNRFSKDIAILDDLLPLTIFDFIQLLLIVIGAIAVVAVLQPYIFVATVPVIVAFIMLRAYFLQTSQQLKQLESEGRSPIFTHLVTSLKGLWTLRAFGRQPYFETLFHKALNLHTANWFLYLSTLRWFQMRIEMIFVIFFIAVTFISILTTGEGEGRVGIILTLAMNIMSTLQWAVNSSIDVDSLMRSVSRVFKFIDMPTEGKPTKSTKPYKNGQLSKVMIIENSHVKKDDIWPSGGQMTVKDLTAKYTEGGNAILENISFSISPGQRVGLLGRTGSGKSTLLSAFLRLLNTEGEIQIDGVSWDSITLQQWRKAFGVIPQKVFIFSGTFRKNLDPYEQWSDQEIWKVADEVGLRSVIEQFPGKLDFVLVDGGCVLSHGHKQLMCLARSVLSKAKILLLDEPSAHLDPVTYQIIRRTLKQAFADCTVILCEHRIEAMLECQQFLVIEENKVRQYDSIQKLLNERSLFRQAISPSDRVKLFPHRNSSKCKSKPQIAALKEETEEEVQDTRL
SMILES,pEC50 [1],pEC50 [2],Maximum % activity (with co-corrector) [3],"Emax (CSE-HRP, without co-corrector) [%]",Emax [4] [%],pEC50 [5],Maximum % activity (with co-corrector) [6],pEC50 [7]
COc1ccc(-c2ccc(F)cc2F)cc1CN[C@H]1[C@H](C(C)(C)C)[C@@H](C(=O)O)N(C(=O)C2CCCCC2)[C@H]1c1ccccc1 [II-283],> 6.00,> 6.00,+++ (≥350),> 200,–,–,–,–
COc1ccc(-c2cccnc2)cc1CN[C@H]1[C@H](C(C)(C)C)[C@@H](C(=O)O)N(C(=O)C2CCCCC2)[C@H]1c1ccccc1 [II-284],5.00 to 6.00,5.00 to 6.00,+++ (≥350),< 100,–,–,–,–
COc1ccc(-c2c(C)noc2C)cc1CN[C@H]1[C@H](C(C)(C)C)[C@@H](C(=O)O)N(C(=O)C2CCCCC2)[C@H]1c1ccccc1 [II-285],5.00 to 6.00,5.00 to 6.00,+++ (≥350),100 to 200,–,–,–,–
COc1ccc(-c2cccc(F)c2F)cc1CN[C@H]1[C@H](C(C)(C)C)[C@@H](C(=O)O)N(C(=O)C2CCCCC2)[C@H]1c1ccccc1 [II-286],> 6.00,> 6.00,+++ (≥350),> 200,–,–,–,–
COc1ccc(-c2cncc(F)c2)cc1CN[C@H]1[C@H](C(C)(C)C)[C@@H](C(=O)O)N(C(=O)C2CCCCC2)[C@H]1c1ccccc1 [II-287],5.00 to 6.00,5.00 to 6.00,+++ (≥350),100 to 200,–,–,–,–
COc1ccc(-c2cccnc2C)cc1CN[C@H]1[C@H](C(C)(C)C)[C@@H](C(=O)O)N(C(=O)C2CCCCC2)[C@H]1c1ccccc1 [II-288],5.00 to 6.00,5.00 to 6.00,+++ (≥350),< 100,–,–,–,–
COc1ccc(-c2ccc(C#N)cc2)cc1CN[C@H]1[C@H](C(C)(C)C)[C@@H](C(=O)O)N(C(=O)C2CCCCC2)[C@H]1c1ccccc1 [II-289],> 6.00,5.00 to 6.00,+++ (≥350),< 100,–,–,–,–
COc1ccc(-c2cnn(C3CCC3)c2)cc1CN[C@H]1[C@H](C(C)(C)C)[C@@H](C(=O)O)N(C(=O)C2CCCCC2)[C@H]1c1ccccc1 [II-290],5.00 to 6.00,5.00 to 6.00,++ (≥150 and <350),< 100,–,–,–,–
COc1ccc(-c2ccco2)cc1CN[C@H]1[C@H](C(C)(C)C)[C@@H](C(=O)O)N(C(=O)C2CCCCC2)[C@H]1c1ccccc1 [II-291],5.00 to 6.00,5.00 to 6.00,+++ (≥350),> 200,–,–,–,–
COc1ccc(OC(F)F)cc1CN[C@H]1[C@H](C(C)(C)C)[C@@H](C(=O)O)N(C(=O)C2CCCCC2)[C@H]1c1ccccc1 [II-292],5.00 to 6.00,5.00 to 6.00,+++ (≥350),100 to 200,–,–,–,–
COc1ccc(C2=CCOC2)cc1CN[C@H]1[C@H](C(C)(C)C)[C@@H](C(=O)O)N(C(=O)C2CCCCC2)[C@H]1c1ccccc1 [II-293],5.00 to 6.00,5.00 to 6.00,+++ (≥350),100 to 200,–,–,–,–
COc1ccc(C(C)(C)C)cc1CN[C@H]1[C@H](C(C)(C)OC)[C@@H](C(=O)O)N(C(=O)C2CCCCC2)[C@H]1c1ccccc1OC [II-294],5.00 to 6.00,5.00 to 6.00,+++ (≥350),> 200,–,–,–,–
COc1ccc(C(F)(F)F)cc1CN[C@H]1[C@H](C(C)(C)OC)[C@@H](C(=O)O)N(C(=O)C2CCCCC2)[C@H]1c1ccccc1OC [II-295],5.00 to 6.00,5.00 to 6.00,+++ (≥350),100 to 200,–,–,–,–
COc1ccc(-c2ccccc2)nc1CN[C@H]1[C@H](C(C)(C)C)[C@@H](C(=O)O)N(C(=O)C2CCCCC2)[C@H]1c1ccccc1 [II-296],5.00 to 6.00,5.00 to 6.00,+++ (≥350),100 to 200,–,–,–,–
COc1ccc(C(C)(C)C)cc1CN[C@H]1[C@H](C(C)(C)C)[C@@H](C(=O)O)N(C(=O)C(OC)C(C)(C)C)[C@H]1c1ccccc1 (stereo partly shown) [II-298],5.00 to 6.00,5.00 to 6.00,+++ (≥350),100 to 200,–,–,–,–
COc1ccc(C(F)(F)F)cc1CN[C@H]1[C@H](C(C)(C)C)[C@@H](C(=O)O)N(C(=O)C2Cc3ccccc3CO2)[C@H]1c1ccccc1 (stereo partly shown) [II-299],5.00 to 6.00,5.00 to 6.00,+++ (≥350),100 to 200,–,–,–,–
COc1ccc(C(C)(C)C)cc1CN[C@H]1[C@H](C(C)(C)C)[C@@H](C(=O)O)N(C(=O)C2Cc3ccccc3CO2)[C@H]1c1ccccc1 (stereo partly shown) [II-300],> 6.00,> 6.00,+++ (≥350),> 200,–,–,–,–

SMILES,pEC50 [1],pEC50 [2],Maximum % activity (with co-corrector) [3],"Emax (CSE-HRP, without co-corrector) [%]",Emax [4] [%],pEC50 [5],Maximum % activity (with co-corrector) [6],pEC50 [7]
COc1ncc(C(C)(C)C)cc1CN[C@H]1[C@H](C(C)(C)C)[C@@H](C(=O)O)N(C(=O)Cc2c(F)cccc2F)[C@H]1c1ccccc1 [II-301],5.00 to 6.00,> 6.00,+++ (≥350),> 200,–,–,–,–
COc1ccc(C(C)(C)C)cc1CN[C@H]1[C@H](C2(C)CC2)[C@@H](C(=O)O)N(C(=O)C2CCCCC2)[C@H]1c1ccccc1 [II-302],5.00 to 6.00,> 6.00,+++ (≥350),> 200,–,–,–,–
COc1cc(C(F)(F)F)ccc1CN[C@H]1[C@H](C2(C)CC2)[C@@H](C(=O)O)N(C(=O)C2CCCCC2)[C@H]1c1ccccc1 [II-303],5.00 to 6.00,5.00 to 6.00,+++ (≥350),< 100,–,–,–,–
COc1ccc(C(C)(C)C)cc1CN[C@H]1[C@H](C(C)(C)C)[C@@H](C(=O)O)N(C(=O)C(C)CC(F)(F)F)[C@H]1c1ccccc1 (stereo partly shown) [II-304],5.00 to 6.00,5.00 to 6.00,+++ (≥350),> 200,–,–,–,–
COc1ccc(C(C)(C)C)cc1CN[C@H]1[C@H](C(C)(C)C)[C@@H](C(=O)O)N(C(=O)C(C)Oc2cccc(F)c2)[C@H]1c1ccccc1 (stereo partly shown) [II-305],> 6.00,> 6.00,+++ (≥350),100 to 200,–,–,–,–
COc1ccc(C(C)(C)C)cc1CN[C@H]1[C@H](C(C)(C)C)[C@@H](C(=O)O)N(C(=O)C2CC(C)C2)[C@H]1c1ccccc1 (stereo partly shown) [II-306],5.00 to 6.00,5.00 to 6.00,+++ (≥350),> 200,–,–,–,–
COc1ccc(C(C)(C)C)cc1CN[C@H]1[C@H](C(C)(C)C)[C@@H](C(=O)O)N(C(=O)C2CC2c2ccc(F)cc2)[C@H]1c1ccccc1 (stereo partly shown) [II-307],> 6.00,> 6.00,+++ (≥350),> 200,–,–,–,–
COc1ccc(C(C)(C)C)cc1CN[C@H]1[C@H](C(C)(C)C)[C@@H](C(=O)O)N(C(=O)[C@H](C)OC)[C@H]1c1ccccc1 [II-308],5.00 to 6.00,5.00 to 6.00,+++ (≥350),100 to 200,–,–,–,–
COc1ccc(C(C)(C)C)cc1CN[C@H]1[C@H](C(C)(C)C)[C@@H](C(=O)O)N(C(=O)C2CC2(C)C)[C@H]1c1ccccc1 (stereo partly shown) [II-309],5.00 to 6.00,5.00 to 6.00,+++ (≥350),> 200,–,–,–,–
COc1ccc(C(C)(C)C)cc1CN[C@H]1[C@H](C(C)(C)C)[C@@H](C(=O)O)N(C(=O)C(C)Oc2ccc(F)cc2)[C@H]1c1ccccc1 (stereo partly shown) [II-310],5.00 to 6.00,> 6.00,+++ (≥350),> 200,–,–,–,–
COc1ccc(C(C)(C)C)cc1CN[C@H]1[C@H](C(C)(C)C)[C@@H](C(=O)O)N(C(=O)[C@@H](C)OC)[C@H]1c1ccccc1 [II-311],5.00 to 6.00,5.00 to 6.00,+++ (≥350),> 200,–,–,–,–
COc1ccc(C(C)(C)C)cc1CN[C@H]1[C@H](C(C)(C)C)[C@@H](C(=O)O)N(C(=O)C(C)Oc2ccccc2Cl)[C@H]1c1ccccc1 (stereo partly shown) [II-312],> 6.00,> 6.00,+++ (≥350),100 to 200,–,–,–,–
COc1ccc(C(C)(C)C)cc1CN[C@H]1[C@H](C(C)(C)C)[C@@H](C(=O)O)N(C(=O)C2CCC2)[C@H]1c1ccccc1 [II-313],5.00 to 6.00,5.00 to 6.00,+++ (≥350),> 200,–,–,–,–
COc1ccc(C(C)(C)C)cc1CN[C@H]1[C@H](C(C)(C)C)[C@@H](C(=O)O)N(C(=O)C2Cc3ccccc3S2)[C@H]1c1ccccc1 (stereo partly shown) [II-314],5.00 to 6.00,> 6.00,+++ (≥350),> 200,–,–,–,–
COc1ccc(C(C)(C)C)cc1CN[C@H]1[C@H](C(C)(C)C)[C@@H](C(=O)O)N(C(=O)[C@H](C)c2ccccc2)[C@H]1c1ccccc1 [II-315],> 6.00,> 6.00,+++ (≥350),> 200,–,–,–,–
COc1ccc(C(C)(C)C)cc1CN[C@H]1[C@H](C(C)(C)C)[C@@H](C(=O)O)N(C(=O)C2CCN(C(=O)C3CC3)CC2)[C@H]1c1ccccc1 [II-316],–,–,–,–,> 200,5.00 to 6.00,+++ (≥350),5.00 to 6.00
COc1ccc(C(C)(C)C)cc1CN[C@H]1[C@H](C(C)(C)C)[C@@H](C(=O)O)N(C(=O)C2CCc3cccc(OC)c3C2)[C@H]1c1ccccc1 (stereo partly shown) [II-317],–,–,–,–,> 200,> 6.00,+++ (≥350),> 6.00
